Each block holds one compound with its values, some of them ahead of it.
How the values were obtained:
lung cancer tumor = experiment: Lung cancer tumor growth in vivo; parameters: species or system nude mice; conditions: 3 mg/kg twice a day or 30 mg/kg twice a day, vs vehicle, FIG. 1
Procedure: (§1) Compounds of the invention also show activity in the following pharmacodynamic model that assesses tumor VEGF levels. Briefly, HT1080 cells (a human fibrosarcoma cell line) may be implanted subcutaneously in nude mice. After seven days, mice may be administrated compounds orally at a desired dosage range, e.g., 200 mg/kg/day, for seven days. The tumors may then be excised from mice, weighed and homogenized in Tris-HCl buffer containing proteinase inhibitors. Moulder et al., Cancer Res. 61(24):8887-95 (2001). Tumor VEGF levels are subsequently measured using a human VEGF ELISA kit (R&D System). Protein concentrations of the homogenates are measured with a Bio-Rad Protein assay kit and tumor VEGF levels are normalized to the protein concentrations.
(§2) In similarly conducted experiments, compounds of the invention are shown to reduce lung cancer tumor growth (at a dosage of 3 mg/kg, twice a day, or 30 mg/kg, twice a day) (FIG. 1), Ewing's sarcoma and neuroblastoma tumor growth (at a dosage of 30 mg/kg, once a day) (FIG. 2), fibrosarcoma tumor growth (at a dosage of 10 mg/kg 3×/week) (FIG. 3), and human skin malignant melanoma (at a dosage of 10 mg/kg 5×/week) (FIG. 4) as compared to vehicle. Furthermore, the compounds of the invention are shown to reduce VEGF plasma and tumor levels in fibrosarcoma tumors as compared to vehicle (at a dosage of 10 mg/kg 3×/week) (FIG. 5).

colon cancer tumor = experiment: Colon cancer tumor growth in vivo, alone or with 5-FU; parameters: species or system nude mice; conditions: alone or in combination with 5-FU (fluorouracil), FIG. 6
[1] = system: HT1080 cells (a human fibrosarcoma cell line); experiment: In vivo tumor growth PD model, tumor and plasma VEGF levels by human VEGF ELISA; parameters: species or system nude mice; conditions: 10 mg/kg 3×/week, vs vehicle, FIG. 5
Procedure: as §1, §2

VEGF mRNA = VEGF mRNA levels by Real-Time PCR under hypoxic conditions; format: cell-based, Human; conditions: FIG. 11
Procedure: Human solid tumor cells are treated with various concentrations of a compound of the present invention or a control under hypoxic conditions. Actinomycin D blocks transcription and is used as a control. Total RNA is isolated using the RNeasy kit (Qiagen, Inc., Valencia, Calif., USA) or an acid-guanidinium thiocyanate-phenol-chloroform based method (See Chomczynski, P. and Sacchi, N., Anal. Biochem. 162: 156 (1987), hereby incorporated by reference).
Concentration of total RNA can be determined using the RiboGreen® fluorescent dye (Molecular Probes, Inc., Eugene, Oreg., USA) with the VersaFluor Fluorometer System (BioRad, Hercules, Calif., USA). Quality and integrity of total RNA can be assessed on 1% formaldehyde-agarose gels. First-strand cDNA was synthesized using 1 μg of total RNA (DNase-treated) in a 20 μl reverse transcriptase reaction mixture (Leclerc G J, Barredo J C, Clin. Cancer Res. 2001, 7:942-951, which is hereby incorporated by reference). A region of the VEGF mRNA is amplified using PCR primers. The cDNA amplified fragment (approximately 300 basepairs) is cloned into a vector such as the pCR2.1-TOPO vector (Invitrogen, Carlsbad, Calif., USA) to generate a plasmid. […] Real-Time quantitations are performed using the BIO-RAD iCycler iQ system (BioRad, Hercules, Calif., USA). The fluorescence threshold value can be calculated using the iCycle iQ system software.

fibrosarcoma tumor = experiment: Fibrosarcoma tumor growth in vivo; parameters: species or system nude mice; conditions: 10 mg/kg 3×/week, vs vehicle, FIG. 3
Procedure: as §1, §2

tumor = experiment: Tumor growth in vivo, alone or with Avastin; parameters: species or system nude mice; conditions: alone or in combination with Avastin (bevacizumab), FIG. 8
Procedure: as §1, §2

[2] = system: Ewing's sarcoma (SK-NEP-1) and neuroblastoma (SY5Y and NGP) tumors; experiment: Angiogenesis in excised tumors, immunochemistry with antibodies to Collagen IV; format: in vivo, mice; conditions: Collagen IV staining of excised tumors, FIG. 10
Source text: The tumors excised from the mice can also be used in immunochemistry experiments to determine levels of angiogenesis. […] SK-NEP-1 cells were previously believed to be a useful Wilms tumor model.

[3] = system: neuroblastoma (SY5Y and NGP); experiment: Neuroblastoma tumor growth in vivo; parameters: species or system nude mice; conditions: 30 mg/kg once a day, vs vehicle, FIG. 2
Procedure: as §1
as §2, with “5). […]” for “5).”

[4] = system: Ewing's sarcoma (SK-NEP-1); experiment: Ewing's sarcoma tumor growth in vivo; parameters: species or system nude mice; conditions: 30 mg/kg once a day, vs vehicle, FIG. 2
Procedure: as §1
as §2, with “5). […]” for “5).”

recombinant PDE5 = molecular target: T1, recombinant PDE5 (Homo sapiens, UniProt O76074); experiment: PDE5 activity, High-Efficiency Fluorescence Polarization Assay (HEFP); format: biochemical; conditions: 45 minutes at room temperature, vs positive control Tadalafil, FIG. 12
T1 construct: purchased CalBioChem
Procedure: The compounds of the invention are tested to assess their affect on phosphodiesterase 5 (PDE5) activity. The affect on PDE5 activity is determined using the High-Efficiency Fluorescence Polarization Assay (HEFP) kit from Molecular Devices. The HEFP assay measures the activity of PDE-5 by using fluorescein-labeled derivatives of cGMP as a substrate. When hydrolyzed by PDE-5, fluorescein-labeled cGMP derivatives are able to bind to a binding reagent. The cGMP substrate:binding reagent complex results in a highly polarized fluorescent state.
After combining recombinant PDE5 (CalBioChem) and the cGMP substrate, the mixture is incubated at room temperature for 45 minutes in the presence or absence of compounds or a positive control (Tadalafil). The reaction is stopped upon addition of the binding reagent. Fluorescence polarization is determined on a Viewlux using a setting recommended by the manufacturer.

VEGF = experiment: Tumor and plasma VEGF expression in vivo, alone or with Avastin; parameters: species or system nude mice; conditions: alone or in combination with Avastin, FIG. 9
Procedure: as §1, §2

[5] = system: hypoxia-inducible endogenous VEGF expression in HeLa cells; experiment: Hypoxia-inducible endogenous VEGF expression, VEGF ELISA of conditioned media (dose-response EC50); format: cell-based; conditions: Homo sapiens
Summary of the method: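 HeLa cells were cultured 24-48 h under hypoxia (1% O2, 5% CO2, balance N2) with or without compound. Conditioned-media VEGF protein was measured by ELISA against a standard curve. EC50 and CC50 come from percentage-inhibition curves over, e.g., seven concentrations, with maximal inhibition set at 100%.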

[6] = system: human skin malignant melanoma; experiment: Malignant melanoma tumor growth in vivo; parameters: species or system nude mice; conditions: 10 mg/kg 5×/week, vs vehicle, FIG. 4
Procedure: as §1, §2

human cervical carcinoma = experiment: Cervical cancer tumor growth in vivo, alone or with Taxol; parameters: species or system nude mice; conditions: alone or in combination with Taxol (paclitaxel), FIG. 7
[7] = HeLa cells under hypoxic conditions
[8] = HeLa cells, hypoxic conditions (1% O2, 5% CO2)
[9] = HeLa cells, hypoxic conditions (1% O2)

Compound: COc1ccc(C2c3[nH]c4ccc(Cl)cc4c3CCN2C(=O)Oc2ccc(Cl)cc2)cc1 (stereo not shown) [Compound 10]
lung cancer tumor growth (lung cancer tumor): inhibition of lung cancer tumor growth
colon cancer tumor growth (colon cancer tumor): inhibition of colon cancer tumor growth
VEGF expression in a fibrosarcoma tumor (tumor VEGF levels) [1]: inhibition of VEGF expression
VEGF mRNA levels (VEGF mRNA): does not affect VEGF mRNA levels
fibrosarcoma tumor growth (fibrosarcoma tumor): inhibition of fibrosarcoma tumor growth
tumor growth (tumor): inhibition of tumor growth
angiogenesis [2]: inhibition of angiogenesis
neuroblastoma tumor growth [3]: inhibition
Ewing's sarcoma tumor growth [4]: inhibition
PDE-5 activity (recombinant PDE5): do not inhibit the activity of PDE-5
plasma VEGF expression (VEGF): inhibition
tumor VEGF expression (VEGF): inhibition
EC50 [5, 7]: < 8 nM
malignant melanoma tumor growth [6]: inhibition of malignant melanoma tumor growth
cervical cancer tumor growth (human cervical carcinoma): inhibition of cervical cancer tumor growth

Compound: CC(C)c1ccc(C2c3[nH]c4ccc(Br)cc4c3CCN2c2ncccn2)cc1 (stereo not shown) [Compound 25]
PDE-5 activity (recombinant PDE5): do not inhibit the activity of PDE-5
EC50 [5, 7]: < 8 nM

Compound: CCOC(=O)N1CCc2c([nH]c3ccc(Br)cc23)C1c1ccc(C(C)C)cc1 (stereo not shown) [Compound 7]
PDE-5 activity (recombinant PDE5): do not inhibit the activity of PDE-5
EC50 [5, 7]: < 8 nM

Compound: O=C(Oc1ccc(Cl)cc1)N1CCc2c([nH]c3ccc(Cl)cc23)C1c1ccc(OCCCCCCN2CCCCC2)cc1 (stereo not shown) [Compound 787]
EC50 [5, 9]: < 8 nM

Compound: CCOC(=O)N1CCc2c([nH]c3ccc(Cl)cc23)C1c1cccc(C)c1 (stereo not shown) [Compound 109]
EC50 [5, 7]: 8 to 40 nM

Compound: CC(C)COC(=O)N1CCc2c([nH]c3ccc(Cl)cc23)C1c1ccccc1 (stereo not shown) [Compound 122]
EC50 [5, 7]: 8 to 40 nM

Compound: O=C(OCCCl)N1CCc2c([nH]c3ccc(Cl)cc23)C1c1ccc([N+](=O)[O-])cc1 (stereo not shown) [Compound 89]
EC50 [5, 7]: 8 to 40 nM

Compound: O=C(Oc1ccc(Cl)cc1)N1CCc2c([nH]c3ccc(Cl)cc23)C1c1ccc(OCCCN2CCCCC2)cc1 (stereo not shown) [Compound 433]
EC50 [5, 9]: < 8 nM

Compound: CC(C)OC(=O)N1CCc2c([nH]c3ccc(Cl)cc23)C1c1ccc(C#N)cc1 (stereo not shown) [Compound 45]
EC50 [5, 7]: < 8 nM

Compound: O=C1NC2CSC(CCCCC(=O)OCCOc3ccc(C4c5[nH]c6ccc(Cl)cc6c5CCN4C(=O)Oc4ccc(Cl)cc4)cc3)C2N1 (stereo not shown) [Compound 544]
EC50 [5, 9]: < 8 nM

Compound: CCOC(=O)N1CCc2c([nH]c3ccc(Cl)cc23)C1c1cc(=O)c2ccccc2o1 (stereo not shown) [Compound 126]
EC50 [5, 7]: 40 to 200 nM

Now from value to compound:

EC50 [5, 7]: < 8 nM
Compound: C=CCOc1ccc(C2c3[nH]c4ccc(Cl)cc4c3CCN2C(=O)OCC)cc1 (stereo not shown) [Compound 396]

EC50 [5, 8]: < 8 nM
Compound: COC(=O)NCC(O)COc1ccc(C2c3[nH]c4ccc(Cl)cc4c3CCN2C(=O)Oc2ccc(Cl)cc2)cc1 (stereo not shown) [Compound 848]

EC50 [5, 7]: 40 to 200 nM
Compound: COc1ccc(C2c3[nH]c4ccc(Cl)cc4c3CCN2C(=O)Nc2ccccc2)cc1 (stereo not shown) [Compound 167]

EC50 [5, 9]: < 8 nM
Compound: O=C(Oc1ccc(Cl)cc1)N1CCc2c([nH]c3ccc(Cl)cc23)C1c1ccc(OCCCCCCn2cncn2)cc1 (stereo not shown) [Compound 791]

EC50 [5, 7]: > 1000 nM
Compound: Clc1ccc2[nH]c3c(c2c1)CCN(Cc1ccoc1)C3c1nccs1 (stereo not shown) [Compound 270]

EC50 [5, 9]: 200 to 1000 nM
Compound: CCOC(=O)N1CCc2c([nH]c3ccc(Cl)cc23)C1c1ccc(C(=O)N2CCC(N3CCCCC3)CC2)cc1 (stereo not shown) [Compound 531]

EC50 [5, 8]: < 8 nM
Compound: O=C(Oc1ccc(F)cc1)N1CCc2c([nH]c3ccc(Cl)cc23)C1c1ccc(OCCCn2cncn2)cc1 (stereo not shown) [Compound 892]

EC50 [5, 7]: 40 to 200 nM
Compound: CCOC(=O)N1CCc2c([nH]c3ccc(Cl)cc23)C1c1ccc(S(C)(=O)=O)cc1 (stereo not shown) [Compound 358]

EC50 [5, 7]: > 1000 nM
Compound: COc1ccc(C2NCCc3c2[nH]c2ccc(Br)cc32)cc1O (stereo not shown) [Compound 379]

EC50 [5, 9]: 200 to 1000 nM
Compound: CCOC(=O)N1CCc2c([nH]c3ccc(Br)cc23)C1c1ccc(C(=O)N(C)CCN(C)C)cc1 (stereo not shown) [Compound 516]

EC50 [5, 7]: 200 to 1000 nM
Compound: CC(C)NC(=S)N1CCc2c([nH]c3ccc(Br)cc23)C1c1cccc(Cl)c1 (stereo not shown) [Compound 202]

EC50 [5, 9]: < 8 nM
Compound: O=C(Oc1ccc(Cl)cc1)N1CCc2c([nH]c3ccc(Cl)cc23)C1c1ccc(OCCCCCCn2ccnc2)cc1 (stereo not shown) [Compound 790]

EC50 [5, 7]: 40 to 200 nM
Compound: CCOC(=O)N1CCc2c([nH]c3ccc(Cl)cc23)C1c1ccc(O)cc1 (stereo not shown) [Compound 128]

EC50 [5, 7]: > 1000 nM
Compound: O=[N+]([O-])c1cccc(C2NCCc3c2[nH]c2ccc(Cl)cc32)c1 (stereo not shown) [Compound 239]

EC50 [5, 9]: < 8 nM
Compound: O=C(Oc1ccc(Cl)cc1)N1CCc2c([nH]c3ccc(Cl)cc23)C1c1ccc(OCCCCCl)cc1 (stereo not shown) [Compound 660]

EC50 [5, 7]: > 1000 nM
Compound: CC(=O)Nc1ccc(C2NCCc3c2[nH]c2ccc(Cl)cc32)cc1 (stereo not shown) [Compound 294]
